Experimental data published in US11583495B2, “Nasal composition comprising a mucoadhesive polymer” (Northriver Pharm, LLC, priority 2017, dated 2023).

Test: Drug release through lamb buccal mucosa, flow-through Franz diffusion cell
Conditions: from CARBOPOL ETD 2020 NF (1%) solution containing triamcinolone and phenol
Experimental: Drug release through lamb buccal mucosa was evaluated via a flow-through Franz diffusion cell. Lamb buccal mucosa was clamped into the cell and the receptor chamber was filled with 5 mL of phosphate buffered solution (PBS). CARBOPOL® ETD 2020 NF (1%) solution containing triamcinolone and phenol was applied to the donor chamber. 0.5 mL of PBS was withdrawn from the receptor chamber every 30 minutes and replaced with fresh PBS over the course of 7 hours. Each sample was placed in a cuvette for testing via UV-Vis spectrophotometry. The sample was compared to a set of calibration standards of known concentrations for triamcinolone and phenol, independently. […] The peaks at 225 nm and 270 nm correspond to phenol, and the peak at 240 corresponds with triamcinolone.

## Oc1ccccc1 [Phenol, phenol]
UV-Vis, based on calibration curve, over 7 hours
  Phenol diffusion through the mucosa: less than 0.025%
Sampled every 30 minutes over 7 hours
  amounts released over time and diffused through the lamb buccal mucosa: Increasing amounts
